Reference: patent US20230338250A1, “Compositions Comprising One or More (Bio)-Alkanediols with Active Ingredients” (Symrise AG, priority 2020, published 2023)

Experiment: Example 1.2 solubility improvement for Hydrocortisone with 1,2-alkanediols: visual appearance
Assay type: physicochemical
Conditions: 0.2 % Hydrocortisone; 1.0 % 1,2-alkanediol; after 3 days 23° C.
Experimental: Production method: A premix B was prepared by mixing solvent, solubilizer and diol. Hydrocortisone was added. The mixture was heated to 70° C. to solve the active component while stirring with a magnetic stirrer. The mixture was stirred for further 5 minutes at 70° C. Water was added and the mixture was cooled while stirring (10 min).
The visual appearance of the sample solutions was evaluated according to the following scale:
The images of the sample solutions A (containing 1,2-pentanediol), B (containing 1,2-hexanediol), C (containing 1,2-heptanediol) and D (containing 1,2-octanediol) are shown in FIG. 3.

Structure (SMILES) | crystallization/sedimentation, transparency, turbidity compared between samples
CCCCCC(O)CO (stereo not drawn) [1,2-heptanediol] | better solubility improving properties

Experiment: Example 2 solubility of alkanediols in water (maximum water solubility, visual observation)
Assay type: physicochemical
Conditions: assessed at ambient temperature after 24 h storage at 5° C.
Excerpt: The water solubility of a substance is the saturation mass concentration of the substance in water at a given temperature. The determination of the solubility in water relates to essentially pure substances which are stable in water and not volatile.
For the determination of the maximum water solubility of an alkanediol, water and different concentrations of the respective alkanediol were blended by stirring. […] The determination of whether the alkanediol has dissolved in water is based entirely on visual observation.

Structure (SMILES) | Maximum solubility in water (% by weight)
CCCCC(O)C(C)O (stereo not drawn) [2,3-heptanediol] | 3.6
CCCCCCC(O)C(C)O (stereo not drawn) [2,3-nonanediol] | 0.3
CCCCCC(O)C(C)O (stereo not drawn) [2,3-octanediol] | 1.5
CCCC(O)CO (stereo not drawn) [Hydrolite® 5 green, 1,2-pentanediol] | 50

More lines, now with the values ahead:

Maximum solubility in water (% by weight) | Structure (SMILES)
2.5 | CCCCCC(O)CO (stereo not drawn) [1,2-heptanediol]
0.1 | CCCCCCCC(O)CO (stereo not drawn) [1,2-nonanediol]
50 | CCCCC(O)CO (stereo not drawn) [Hydrolite® 6, 1,2-hexanediol]
0.5 | CCCCCCC(O)CO (stereo not drawn) [Hydrolite® 8, 1,2-octanediol]
